A short description of one data set: physchem. To be noted: hcl, pH 1.1, solubility.

Converted amounts (≈) assume the structure as drawn. Counter-ions that a name gives are not always drawn. Like-named read-outs stand apart in the source and are kept apart here. Where only a bound is given, the exact number is not on record here.

Usually solubility stands for how much of the substance goes into solution per volume. Read a low solubility as a poorly soluble substance. In the case of `CC(C)(C)NC(=O)[C@@H]1C[C@@H]2CCCC[C@@H]2CN1C[C@@H](O)[C@H](Cc1ccccc1)NC(=O)[C@H](CC(N)=O)NC(=O)c1ccc2ccccc2n1` [Compound A, N-tert.-butyl-decahydro-2-[2(R)-hydroxy-4-phenyl-3(S)-[[N-(2-quinolylcarbonyl)-L-asparaginyl]amino]butyl]-(4aS,8aS)-isoquinoline-3(S)-carboxamide], the solubility is, setting by setting: (hcl, pH 1.1) 50 µg/mL (≈ 74.5 µM); (phosphate buffer, pH 5.4) under 10 µg/mL; (water) 30 µg/mL (≈ 44.7 µM).

In turn, `CC(C)(C)NC(=O)[C@@H]1C[C@@H]2CCCC[C@@H]2CN1C[C@@H](O)[C@H](Cc1ccccc1)NC(=O)[C@H](CC(N)=O)NC(=O)c1ccc2ccccc2n1` [Compound A-mesylate salt] returned a solubility (phosphate buffer, pH 5.4) of 2320 µg/mL; a solubility (water) of 2550 µg/mL; a solubility in the data set “physchem” of 60 µg/mL.

For the origin of these results see patent EP0831826B1, “PHARMACEUTICAL COMPOSITION COMPRISING A PROTEINASE INHIBITOR AND A MONOGLYCERIDE” (F. HOFFMANN-LA ROCHE AG, priority 1995, dated 1996).
